The nature of series [1]: Single transport studies across ECV304 layers (Transwell). As to the method: (§1) All solutions were prepared under sterile conditions.
(§2) For quantification of NSAIDs a reverse-phase high-performance liquid chromatography (RP-HPLC) system from Shimadzu was used (DGV-20A5/prominence Degasser, SIL – 20AC/prominence Auto Sampler, CTO – 20AC/prominence Column Oven, SPD – 20A/prominence UV detector, CMB – 20A/prominence Communications Bus Module). […] Before analysis proteins of samples were precipitated with ice-cold methanol or acetonitril depending on mobile phase composition and supernatants were analyzed. Data aquisition and analysis were performed by LC-Solution software (Shimadzu Handelsgesellschaft, Austria). Substances were analysed in triplicates with a injection volume of 20–50 µL.Varying mixtures of methanol, acetonitrile, and 10 mM potassium buffer (pH = 2.5 for all analysis except pH = 3.5 for single studies with celecoxib) were used as mobile phase.
(§3) Permeability coefficients were calculated following the clearance principle as described recently. Results of blank value experiments were included into permeability coefficient calculation by using reciprocal correlation shown in equation (1):
(§4) 1/PEcell = 1/PEall – 1/PEblank (1)
(§5) PEblank refers to the permeability coefficient without cell layer, PEall represents the permeability coefficient through membrane insert and the cell layer and PEcell is the permeability coefficient only through the cell layer.

In a further series the test system is ECV304 cell layers. Put plainly: in vitro. The procedure: as §1, §2, §3, §4, §5
Another series concerns PBMEC/C1-2 cell layers. Put plainly: in vitro. The note with it: for PEcell: PBMEC/C1-2 group study. The procedure:
as §1, §2, §3, §4, §5

Series [2] is described as follows: Group transport studies across ECV304 layers (Transwell). The note with it: human, PEcell. As to the method: as §1, §2, §3, §4, §5
The format of series [3] is in vitro ADME, calf. The note with it: group composition, ultrafiltration. The procedure:
[…]. After incubation at 37°C for 40 minutes, 2 mL of the solutions were centrifuged across prewashed (2 mL PBS, 10 minutes, 2500 g) Centrisart ultra-filters (molecular cut-off 10 kDa, Sartorius) at 2500 g for 5 (PBS and 0% serum), 10 (7.5% serum) or 15 (50% and 100% serum) minutes to obtain at least one third to one half of the totally applied volume. […]. Carboxyfluorescein was measured by the microplate reader method as described above. Unbound substance concentrations in the filtrates were related to stock solutions to determine the serum binding (100%-unbound fraction [%]). Blank experiments (PBS, 0% serum experiments) were included in the calculation of serum binding values to consider systematic procedure errors and binding of the substances to the ultrafiltration membrane. Experiments under each condition were repeated for three times.

For series [4], the system named is primary rat brain microvascular endothelial cells (RBMEC). As to the kind of experiment: in vitro. The procedure: as §1, §2, §3, §4, §5
Where [5] appears, read: pig, PEcell, PBMEC/C1-2 group study, all substances (6 NSAIDs, diazepam, CF), C6 medium.
The mark [6] stands for this setting: pig, PEcell, PBMEC/C1-2 group study, without Meloxicam.
The mark [7] stands for this setting: pig, with verapamil (concentration not stated), PEcell, PBMEC/C1-2 group study, with Verapamil, without Meloxicam.
Setting [8] is: ECV304 group study, all substances (6 NSAIDs, diazepam, CF), C6 medium.
Setting [9] is: ECV304 group study, without Meloxicam.
Setting [10] is: with probenecid (concentration not stated), ECV304 group study, with Probenecid, without Meloxicam.
Where [11] appears, read: with verapamil (concentration not stated), ECV304 group study, with Verapamil, without Meloxicam.

Like-named read-outs stand apart in the source and are kept apart here.

Take `Cc1ccc(-c2cc(C(F)(F)F)nn2-c2ccc(S(N)(=O)=O)cc2)cc1` [Celecoxib, celecoxib]: the Papp (usually the rate of passage across a membrane or cell layer, normalised by area and donor concentration) at 100 µM in series [1] (human) is 7.62 ×10⁻⁶ cm/s; in series [1] (pig), 22.4 ×10⁻⁶ cm/s; in series [1] (setting [5]), 22.1 ×10⁻⁶ cm/s; in series [1] (setting [6]) it was 25.8 ×10⁻⁶ cm/s; in series [1] (pig, with probenecid (concentration not stated), PEcell, PBMEC/C1-2 group study, with Probenecid, without Meloxicam) it was 27.8 ×10⁻⁶ cm/s; in series [1] (setting [7]) it was 35.1 ×10⁻⁶ cm/s. For the same molecule, the apparent permeability coefficient (Papp) at 100 µM in series [2] (setting [8]) is 11 ×10⁻⁶ cm/s; in series [2] (setting [9]), 23.3 ×10⁻⁶ cm/s; in series [2] (setting [10]), 15.5 ×10⁻⁶ cm/s; in series [2] (setting [11]), 10.3 ×10⁻⁶ cm/s. In addition, the PSblank was 5.10 ± 0.06 µL/min in the series on ECV304 cell layers (100 µM) and 6.07 ± 0.45 µL/min in the series on PBMEC/C1-2 cell layers (100 µM). Moreover, the PEall in the series on ECV304 cell layers (ECV304, Celecoxib study, insert and cell layer) came to 3.31±0.41 µm/min; with PBMEC/C1-2 cell layers (PBMEC/C1-2, Celecoxib study, insert and cell layer), 6.95±0.45 µm/min. Further, the PSall in the series with ECV304 cell layers (human, 100 µM) turned out to be 1.39 ± 0.17 µL/min; in the series on PBMEC/C1-2 cell layers (pig, 100 µM), 2.92 ± 0.19 µL/min. The PScell was 1.91 ± 0.32 µL/min with ECV304 cell layers (human, 100 µM) and 5.62 ± 0.71 µL/min with PBMEC/C1-2 cell layers (pig, 100 µM).
As for `CN1C(=O)CN=C(c2ccccc2)c2cc(Cl)ccc21` [Diazepam, diazepam], the Serum binding is recorded as 19.52±0.13% in series [3] (Serum concentration 50%), 22.52±0.06% in series [3] (Serum concentration 100%) and 8.17±0.49% in series [3] (Serum concentration […] (C6 medium)). In the series with PBMEC/C1-2 cell layers (pig), the PEall worked out at 11.10±1.33 µm/min.
Turning to `O=C(O)Cc1ccccc1Nc1c(Cl)cccc1Cl` [Diclofenac, diclofenac], the results for the PSblank (in series [4] (100 µM); in the series with ECV304 cell layers (100 µM); in the series on PBMEC/C1-2 cell layers (100 µM)) were 1.65 ± 0.13 µL/min, 4.08 ± 0.41 µL/min and 5.83 ± 0.26 µL/min, respectively. Also, the PEall in series [4] (rat, 100 µM) is given as 10.84±0.51 µm/min; in the series on ECV304 cell layers (human, 100 µM) it was 3.58±0.18 µm/min; in the series on PBMEC/C1-2 cell layers (pig, 100 µM), 6.00±0.38 µm/min. Further, the PSall stood at 0.96 ± 0.05 µL/min in series [4] (rat, 100 µM); 1.50 ± 0.08 µL/min with ECV304 cell layers (human, 100 µM); 2.52 ± 0.16 µL/min with PBMEC/C1-2 cell layers (pig, 100 µM). Besides, the PScell in series [4] (rat, 100 µM) was found to be 2.39 ± 0.27 µL/min; with ECV304 cell layers (human, 100 µM), 2.38 ± 0.19 µL/min; with PBMEC/C1-2 cell layers (pig, 100 µM), 4.44 ± 0.48 µL/min. The apparent permeability (Papp) at 100 µM is 9.45 ×10⁻⁶ cm/s in series [1] (human), 17.7 ×10⁻⁶ cm/s in series [1] (pig) and 44.6 ×10⁻⁶ cm/s in series [1] (rat).
`CC(C)Cc1ccc(C(C)C(=O)O)cc1` (centres unmarked) [Ibuprofen, ibuprofen]: the PSblank in series [4] was found to be 1.71 ± 0.15 µL/min; in the series on PBMEC/C1-2 cell layers, 6.72 ± 0.12 µL/min. The PSall in series [4] (rat) is 1.07 ± 0.06 µL/min; in the series with PBMEC/C1-2 cell layers (PBMEC/C1-2, Ibuprofen study, insert and cell layer), 3.45 ± 0.15 µL/min. Also, the PScell was determined as 2.86 ± 0.39 µL/min in series [4] (rat) and 7.10 ± 0.65 µL/min with PBMEC/C1-2 cell layers (PBMEC/C1-2, Ibuprofen study, cell layer only). Moreover, the apparent permeability coefficient (Papp) at 100 µM in series [1] (pig) was 28.2 ×10⁻⁶ cm/s; in series [1] (rat), 53.3 ×10⁻⁶ cm/s; in series [2], 16.3 ×10⁻⁶ cm/s. In the series with ECV304 cell layers (human, 100 µM), this molecule showed a PEall of 4.82±0.05 µm/min.
As for `CN1C(C(=O)Nc2ccccn2)=C(O)c2ccccc2S1(=O)=O` [Piroxicam, piroxicam], the PSblank in series [4] (100 µM) stood at 1.94 ± 0.12 µL/min; in the series on ECV304 cell layers (100 µM), 8.53 ± 0.36 µL/min; with PBMEC/C1-2 cell layers (100 µM), 8.69 ± 0.72 µL/min. Also, the PEall in series [4] (RBMEC group study, insert and cell layer) came out at 12.76±0.33 µm/min; in the series with ECV304 cell layers (ECV304, Piroxicam study, insert and cell layer), 7.65±0.18 µm/min; in the series on PBMEC/C1-2 cell layers (PBMEC/C1-2, Piroxicam study, insert and cell layer) it was 11.02±0.87 µm/min. For the same molecule, the PSall is 1.15 ± 0.03 µL/min in series [4] (rat, 100 µM); 3.21 ± 0.07 µL/min in the series with ECV304 cell layers (human, 100 µM); 4.63 ± 0.36 µL/min in the series on PBMEC/C1-2 cell layers (pig, 240 min, 100 µM). In addition, the PScell in series [4] (rat, 100 µM) came to 2.82 ± 0.17 µL/min; with ECV304 cell layers (human, 240 min, 100 µM), 5.15 ± 0.19 µL/min; with PBMEC/C1-2 cell layers (pig, 240 min, 100 µM), 9.91 ± 1.60 µL/min. The Papp at 100 µM was 20.4 ×10⁻⁶ cm/s in series [1] (human); 39.7 ×10⁻⁶ cm/s in series [1] (pig); 70 ×10⁻⁶ cm/s in series [1] (setting [5]); 49.8 ×10⁻⁶ cm/s in series [1] (pig, PEcell, PBMEC/C1-2 group study, glioma conditioned medium, without celecoxib); 42.1 ×10⁻⁶ cm/s in series [1] (pig, PEcell, PBMEC/C1-2 group study, without Celecoxib); 64.2 ×10⁻⁶ cm/s in series [1] (setting [6]). Also, the Papp at 100 µM in series [1] (setting [7]) is 66.8 ×10⁻⁶ cm/s; in series [1] (rat) it was 52.3 ×10⁻⁶ cm/s; in series [2] (setting [8]), 21.4 ×10⁻⁶ cm/s; in series [2] (ECV304 group study, glioma conditioned medium, without celecoxib) it was 30.8 ×10⁻⁶ cm/s; in series [2] (ECV304 group study, serum-free medium, without celecoxib) it was 37.8 ×10⁻⁶ cm/s; in series [2] (ECV304 group study, without CF (and without celecoxib)), 30.3 ×10⁻⁶ cm/s. In addition, the apparent permeability (Papp) at 100 µM was 28.6 ×10⁻⁶ cm/s in series [2] (ECV304 group study, without Celecoxib); 45.9 ×10⁻⁶ cm/s in series [2] (setting [9]); 29.5 ×10⁻⁶ cm/s in series [2] (setting [10]); 26.6 ×10⁻⁶ cm/s in series [2] (setting [11]). Moreover, the PEcell in the series on PBMEC/C1-2 cell layers (serum-free medium, without celecoxib) worked out at 24.96±2.08 µm/min; in the series on PBMEC/C1-2 cell layers (with Probenecid, without Meloxicam), 30.26±5.85 µm/min; in the series on PBMEC/C1-2 cell layers (without CF (and without celecoxib)) it was 30.27±2.61 µm/min.
As for `CN1C(C(=O)Nc2ccccn2)=C(O)c2sccc2S1(=O)=O` [Tenoxicam, tenoxicam], the PSblank in series [4] (100 µM) is 1.74 ± 0.10 µL/min; in the series with ECV304 cell layers (100 µM), 7.12 ± 0.50 µL/min; in the series on PBMEC/C1-2 cell layers (100 µM), 7.47 ± 0.31 µL/min. In addition, the PEall in series [4] (rat, 100 µM) was 7.82±0.21 µm/min; in the series on ECV304 cell layers (human, 100 µM), 5.15±0.05 µm/min; in the series with PBMEC/C1-2 cell layers (pig, 100 µM), 9.84±0.16 µm/min. Further, the PSall was 0.70 ± 0.02 µL/min in series [4] (rat, 100 µM); 2.16 ± 0.02 µL/min in the series on ECV304 cell layers (human, 100 µM); 4.13 ± 0.07 µL/min in the series with PBMEC/C1-2 cell layers (pig, 100 µM). The PScell in series [4] (rat, 100 µM) stood at 1.18 ± 0.05 µL/min; in the series on ECV304 cell layers (human, 100 µM), 3.11 ± 0.04 µL/min; in the series on PBMEC/C1-2 cell layers (pig, 100 µM), 9.25 ± 0.33 µL/min. Further, the apparent permeability (Papp) at 100 µM in series [1] (human) was 12.3 ×10⁻⁶ cm/s; in series [1] (pig), 36.7 ×10⁻⁶ cm/s; in series [1] (pig, PEcell), 38.5 ×10⁻⁶ cm/s; in series [1] (rat), 21.9 ×10⁻⁶ cm/s.
As for carboxyfluorescein [CF], in the series with PBMEC/C1-2 cell layers, the “Permeability coefficients (PEcell), range of averages over the single studies” value is given as 16.67-19.66 µm/min.

These data come from paper PMC3900635, “Transport Rankings of Non-Steroidal Antiinflammatory Drugs across Blood-Brain Barrier In Vitro Models” (PLoS ONE, 2014).
